The values below come from patent US5216162A, “Substituted pyrrolo[3,2-c]quinolines” (American Home Products Corporation, priority 1992, dated 1993).

This experiment concerns IL-1-induced release of neutral protease from rabbit articular chondrocytes. Put plainly: Inhibition of IL-1-induced release of neutral protease from rabbit articular chondrocytes (azocoll neutral protease assay). Type of experiment: cell-based, rabbit (male New Zealand white). As to conditions: Oryctolagus cuniculus, Chondrocyte, purified human IL-1 stimulation. The method, then: The ability of the compounds of the inventions to inhibit interleukin 1 is measured by the ability of the test compounds to inhibit the IL-1-induced release of neutral protease from rabbit articular chondrocytes.
This assay is carried out as follows:
Isolation of rabbit chondrocytes
Male New Zealand white rabbits are anesthetized with 50 mg/kg of ketamine (i.m.) and killed by an intracardiac injection of 3 mls of Nembutal. The knee joints of both legs are resected and the articular surfaces are exposed. Cartilage slices are obtained using a scalpel and are placed in a tissue culture dish (100 mm diameter) containing 10 mls of Hank's balanced salt solution (HBSS). The chondrocytes within the cartilage slices are then liberated by a series of enzyme digestions. The slices are incubated for 10 minutes at 37° C. in 0.05% hyaluronidase (Sigma H-3884), rinsed with HBSS and incubated with 0.2% trypsin (Sigma T-2395) for 10 minutes at 37° C. The slices are rinsed again and incubated for 10 minutes at 37° C. with 1.2% collagenase (Sigma C-5138). The slices are then rinsed again with HBSS and resuspended in 10 ml of Ham's F-12 medium containing 10% fetal bovine calf serum (FCS) and 0.2% collagenase and incubated overnight at 37° C. in a 5% CO2 incubator. The next day, the medium containing the digested cartilage fragments and liberated chondrocytes is transferred to a 15 ml centrifuge tube and the cells are collected by centrifugation and washed twice and resuspended in Ham's F-12 medium. The cells are then plated into 24-well tissue culture plates (2×10^ 5 cells/well) and incubated at […] until confluent (usually 4-6 days).
Stimulation of chondrocytes and drug treatment
The confluent chondrocytes are rinsed twice with serum-free Ham's F-12 medium and 1 ml is added to each well. Fifty μl of purified human IL-1 (100 Units/ml; Genzyme Corporation, Boston, MA) is then added to stimulate these cells to secrete neutral protease. To measure drug effects, the cells are treated with test compound 10 minutes prior to addition of IL-1. The standard screening dose is 10 μM. Twenty-four hours after IL-1 stimulation, supernatant fluids are collected and assayed for neutral protease activity.
The neutral protease activity of chondrocyte supernatant fluids is determined by their ability to degrade an insoluble protease substrate, azocoll (Sigma). Supernatants are treated for 10 minutes at room temperature with 350 μM p-aminophenylmurcuric acetate to activate the latent enzyme. Three hundred of μl of supernatant is then mixed with 500 μl of a 20 mg/ml suspension of azocoll and incubated at 37° C. for 18-24 hours with gentle rocking. The mixtures are centrifuged and the amount of substrate hydrolyzed is determined by measuring the absorbance of the supernatant at 520 nm.
Drug effects are calculated as the % change in enzyme activity (absorbance)by supernatants from drug-treated chondrocytes relative to enzyme activity of supernatants from vehicle-treated chondrocytes as follows: [formula]
Where tested in this assay, the compounds of the invention gave the following results: […]

[1] abbreviates: test compound 10 min before IL-1, 24 h, read-out: % Inhibition (I.S.D.).

Each structure is given as a SMILES string.

Consider `N#Cc1ccc(NCCc2[nH]c3c(cnc4cc(Cl)ccc43)c2C=O)cc1` [Example 1, 4-[[2-(7-Chloro-3-formyl-1H-pyrrolo[3,2-c]-quinolin-2-yl)ethyl]amino]benzonitrile], for which, under setting [1], the inhibition – broadly, the change of the read-out against control, counted positive when it falls – at 10 µM is 21%.

As for `CCOC(=O)c1ccc(NCCc2[nH]c3c(cnc4cc(Cl)ccc43)c2C=O)cc1` [Example 2, 4-[[2-(7-Chloro-3-formyl-1H-pyrrolo[3,2-c]quinolin-2-yl)ethyl]amino]benzoicacid ethyl ester], the inhibition at 10 µM under setting [1] was 50%. For `CS(=O)(=O)c1ccc(NCCc2[nH]c3c(cnc4cc(Cl)ccc43)c2C=O)cc1` [Example 3, 7-Chloro-2-[2-[[4-(methylsulfonyl)phenyl]amino]ethyl]-1H-pyrrolo[3,2-c]quinoline-3-carboxaldehyde], the inhibition at 10 µM under setting [1] was determined as 28%. Turning to `N#Cc1ccc(NCCc2[nH]c3c(cnc4cc(Cl)ccc43)c2C=NNc2ccccc2)cc1` [Example 4, 4-[[2-[7-Chloro-3-[(phenylhydrazono)methyl]-1H-pyrrolo[3,2-c]quinolin-2-yl]ethyl]amino]benzonitrile], under setting [1], the inhibition at 10 µM amounted to 52%.

Turning to `CCOC(=O)c1ccc(NCCc2[nH]c3c(cnc4cc(Cl)ccc43)c2C=NNc2ccccc2)cc1` [Example 5, 4-[[2-[7-Chloro-3-[(phenylhydrazono)methyl]-1H-pyrrolo[3,2-c]quinolin-2-yl]ethyl]amino]benzoic acid ethyl ester], under setting [1], the inhibition at 10 µM is 54%. As to `CS(=O)(=O)c1ccc(NCCc2[nH]c3c(cnc4cc(Cl)ccc43)c2C=NNc2ccccc2)cc1` [Example 6, 7-Chloro-2-[2-[[4-(methylsulfonyl)phenyl]amino]ethyl]-1H-pyrrolo[3,2-c]quinoline-3-carboxaldehyde phenylhydrazone], the inhibition at 0.1 µM (dose 0.1 μM, test compound 10 min before IL-1, 24 h, read-out: % Inhibition (I.S.D.)) was found to be 14%. Also, the inhibition at 1 µM (dose 1 μM, test compound 10 min before IL-1, 24 h, read-out: % Inhibition (I.S.D.)) came out at 23%. For the same molecule, under setting [1], the inhibition at 10 µM was 80%. The half-inhibitory concentration (IC50) (as a rule, the midpoint of a concentration-inhibition curve) (24 h, doses 10, 1 and 0.1 μM) worked out at 2.9 µM.
